Experimental data as given in BindingDB's records for doi:10.1016/s1074-5521(99)80118-5 (Princeton University, 1999).

Target: T1, Tyrosine-protein kinase ZAP-70 (Homo sapiens, UniProt P43403)
T1 sequence (P43403 whole entry): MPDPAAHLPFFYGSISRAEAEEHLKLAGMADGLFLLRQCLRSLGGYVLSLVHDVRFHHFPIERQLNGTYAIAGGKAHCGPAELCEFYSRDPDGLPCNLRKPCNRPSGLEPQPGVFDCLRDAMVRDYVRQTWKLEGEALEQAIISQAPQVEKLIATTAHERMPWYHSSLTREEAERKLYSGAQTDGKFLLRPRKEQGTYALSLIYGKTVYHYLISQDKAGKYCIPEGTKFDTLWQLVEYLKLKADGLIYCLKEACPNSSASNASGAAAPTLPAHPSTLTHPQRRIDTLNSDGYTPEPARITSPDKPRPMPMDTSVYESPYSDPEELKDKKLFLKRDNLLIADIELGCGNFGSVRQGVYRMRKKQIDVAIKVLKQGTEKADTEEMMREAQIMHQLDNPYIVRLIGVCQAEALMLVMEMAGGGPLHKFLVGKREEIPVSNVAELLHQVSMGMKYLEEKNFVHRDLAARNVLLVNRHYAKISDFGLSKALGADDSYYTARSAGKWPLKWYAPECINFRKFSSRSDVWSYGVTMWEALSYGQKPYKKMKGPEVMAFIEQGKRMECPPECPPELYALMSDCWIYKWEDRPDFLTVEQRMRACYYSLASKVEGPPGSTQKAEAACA
Test: Inhibition Assay
Excerpt: Inhibition of protein tyrosine kinases

Work on `Cc1ccc(-c2nn(C(C)(C)C)c3ncnc(N)c23)cc1` yielded an IC50 of over 100 µM.
